Results as given in patent US8987268B2, “Pyrrolopyridazine JAK3 inhibitors and their use for the treatment of inflammatory and autoimmune diseases” (Bristol-Myers Squibb Company, priority 2011, dated 2015).
pIC50: −log10 of the molar value. Where a name gives a salt, the structure may show the parent alone.

Key:
GST-JAK3 enzyme = GST-JAK3 enzyme (Homo sapiens (Human), UniProt P52333); assay: JAK3 Kinase Assay Protocol (Caliper); format: biochemical; conditions: JAK3 kinase inhibition; read-out: LLE_JAK3_FB (IC50)
Description: JAK3 Kinase Assay Protocol (Caliper)
(§1) The assay reactions were performed in U-bottom 384-well plates. […] The reaction was initiated by the combination of GST-JAK3 enzyme with substrates and test compounds. The reactions were incubated at room temperature for 3 hours and terminated by adding 60 μl of 35 mM EDTA to each sample. Each reaction mixture was analyzed on the Caliper LabChip 3000 (Caliper, Hopkinton, Mass.) by electrophoretic separation of the fluorescent substrate and phosphorylated product. […] Compounds were dissolved at 10 mM in dimethylsulfoxide (DMSO) and evaluated at eleven concentrations. IC50 values were derived by non-linear regression analysis.

GST-JAK1 enzyme = GST-JAK1 enzyme (Homo sapiens (Human), UniProt P23458); assay: JAK1 Kinase Assay Protocol; format: biochemical; conditions: JAK1 kinase inhibition; read-out: LLE_JAK1 (IC50)
Description: JAK1 Kinase Assay Protocol
as §1, with “GST-JAK1” for “GST-JAK3”

Chain of GST-JAK3 enzyme (P52333 whole entry): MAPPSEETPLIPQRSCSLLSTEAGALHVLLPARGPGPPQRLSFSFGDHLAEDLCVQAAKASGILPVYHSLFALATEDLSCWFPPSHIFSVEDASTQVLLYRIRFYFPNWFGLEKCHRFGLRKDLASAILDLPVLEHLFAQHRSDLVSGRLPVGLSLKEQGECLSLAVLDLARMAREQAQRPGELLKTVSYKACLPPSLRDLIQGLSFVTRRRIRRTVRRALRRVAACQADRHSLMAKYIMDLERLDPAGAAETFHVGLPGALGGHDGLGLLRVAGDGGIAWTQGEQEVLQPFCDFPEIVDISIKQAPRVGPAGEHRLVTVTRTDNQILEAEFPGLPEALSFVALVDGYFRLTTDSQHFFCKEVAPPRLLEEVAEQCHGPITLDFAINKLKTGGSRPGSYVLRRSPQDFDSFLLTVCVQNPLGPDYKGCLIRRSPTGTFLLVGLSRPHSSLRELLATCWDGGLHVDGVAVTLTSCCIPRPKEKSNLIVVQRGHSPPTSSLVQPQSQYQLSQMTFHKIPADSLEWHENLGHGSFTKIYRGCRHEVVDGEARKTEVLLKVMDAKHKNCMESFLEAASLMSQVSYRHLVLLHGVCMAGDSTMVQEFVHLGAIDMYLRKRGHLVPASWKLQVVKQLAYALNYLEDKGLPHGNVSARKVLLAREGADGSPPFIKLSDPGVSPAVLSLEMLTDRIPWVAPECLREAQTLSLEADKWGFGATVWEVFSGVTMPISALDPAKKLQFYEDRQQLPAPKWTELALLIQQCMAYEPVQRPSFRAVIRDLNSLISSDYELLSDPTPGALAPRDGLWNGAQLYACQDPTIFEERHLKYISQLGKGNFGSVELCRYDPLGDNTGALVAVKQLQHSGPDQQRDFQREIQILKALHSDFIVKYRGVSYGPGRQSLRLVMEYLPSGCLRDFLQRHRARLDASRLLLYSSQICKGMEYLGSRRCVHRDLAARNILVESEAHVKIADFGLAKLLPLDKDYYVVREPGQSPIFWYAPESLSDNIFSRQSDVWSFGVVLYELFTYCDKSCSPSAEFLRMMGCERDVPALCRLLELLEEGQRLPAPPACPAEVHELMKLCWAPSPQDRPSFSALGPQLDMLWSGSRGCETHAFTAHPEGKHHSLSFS
Chain of GST-JAK1 enzyme (P23458 whole entry): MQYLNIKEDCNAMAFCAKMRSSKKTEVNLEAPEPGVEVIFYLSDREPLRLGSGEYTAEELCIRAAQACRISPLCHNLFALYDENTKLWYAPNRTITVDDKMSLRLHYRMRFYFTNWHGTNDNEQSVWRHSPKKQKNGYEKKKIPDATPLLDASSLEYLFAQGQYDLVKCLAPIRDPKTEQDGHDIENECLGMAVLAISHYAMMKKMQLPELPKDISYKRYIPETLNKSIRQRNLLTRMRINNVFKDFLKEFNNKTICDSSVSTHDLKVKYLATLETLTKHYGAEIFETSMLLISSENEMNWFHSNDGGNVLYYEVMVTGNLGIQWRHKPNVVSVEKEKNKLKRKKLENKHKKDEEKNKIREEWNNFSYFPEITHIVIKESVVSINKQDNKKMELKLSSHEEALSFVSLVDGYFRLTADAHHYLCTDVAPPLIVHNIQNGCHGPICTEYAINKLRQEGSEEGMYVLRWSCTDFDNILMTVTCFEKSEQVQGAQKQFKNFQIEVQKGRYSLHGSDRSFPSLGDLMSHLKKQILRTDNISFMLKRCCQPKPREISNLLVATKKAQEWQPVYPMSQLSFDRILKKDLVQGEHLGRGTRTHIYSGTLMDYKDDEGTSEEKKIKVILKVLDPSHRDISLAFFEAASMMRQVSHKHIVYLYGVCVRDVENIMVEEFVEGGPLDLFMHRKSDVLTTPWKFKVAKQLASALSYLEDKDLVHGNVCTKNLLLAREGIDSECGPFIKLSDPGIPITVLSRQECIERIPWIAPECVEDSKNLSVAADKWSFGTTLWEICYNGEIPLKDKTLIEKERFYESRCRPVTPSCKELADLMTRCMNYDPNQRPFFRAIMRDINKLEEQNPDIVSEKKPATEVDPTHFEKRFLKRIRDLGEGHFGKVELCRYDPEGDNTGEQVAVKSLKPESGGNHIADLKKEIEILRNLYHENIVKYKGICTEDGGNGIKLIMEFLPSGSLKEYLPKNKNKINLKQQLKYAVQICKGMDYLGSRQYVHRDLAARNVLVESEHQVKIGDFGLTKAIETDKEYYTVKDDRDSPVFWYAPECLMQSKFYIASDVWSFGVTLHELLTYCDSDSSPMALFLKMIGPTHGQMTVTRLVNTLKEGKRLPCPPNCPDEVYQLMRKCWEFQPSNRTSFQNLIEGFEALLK

Structure (SMILES) | pIC50 (GST-JAK3 enzyme) | pIC50 (GST-JAK1 enzyme)
C[C@H]1CN(c2ccc(C#N)cn2)C[C@H]1Nc1c(C(N)=O)cnn2cc(-c3cnn(CC(=O)N4CCC(F)(F)C4)c3)cc12 [Example 185, 4-(((3S,4S)-1-(5-cyanopyridin-2-yl)-4-methylpyrrolidin-3-yl)amino)-6-(1-(2-(3,3-difluoropyrrolidin-1-yl)-2-oxoethyl)-1H-pyrazol-4-yl)pyrrolo[1,2-b]pyridazine-3-carboxamide] | 9.22 | 9.52
CNC(=O)c1cccc(-c2cc3c(N[C@@H]4CN(C(=O)C5(C#N)CC5)C[C@@H]4OC)c(C(N)=O)cnn3c2)c1 [Example 303, 4-(((3R,4S)-1-(1-cyanocyclopropanecarbonyl)-4-methoxypyrrolidin-3-yl)amino)-6-(3-(methylcarbamoyl)phenyl)pyrrolo[1,2-b]pyridazine-3-carboxamide] | 8.82 | 9.30
NC(=O)c1cnn2cc(-c3cncc(F)c3)cc2c1NC1CCOCC1 [Example 29, 6-(5-fluoro-3-pyridinyl)-4-(tetrahydro-2H-pyran-4-ylamino)pyrrolo[1,2-b]pyridazine-3-carboxamide] | 7.15 | 6.92
COc1ncc(-c2cc3c(N[C@@H]4CN(C(=O)C5(C#N)CC5)C[C@@H]4CF)c(C(N)=O)cnn3c2)cn1 [Example 280, 4-((3S,4S)-1-(1-cyanocyclopropanecarbonyl)-4-(fluoromethyl)pyrrolidin-3-ylamino)-6-(2-methoxypyrimidin-5-yl)pyrrolo[1,2-b]pyridazine-3-carboxamide] | 8.05 | 9.05
NC(=O)c1cnn2cc(-c3ccc(F)cc3)cc2c1NC1CCOCC1 [Example 28, 6-(4-fluorophenyl)-4-(tetrahydro-2H-pyran-4-ylamino)pyrrolo[1,2-b]pyridazine-3-carboxamide] | 8.12 | 7.67
CC(=O)N1C[C@H]2C[C@@H](Nc3c(C(N)=O)cnn4cc(-c5cnn(C)c5)cc34)[C@H](C)[C@H]2C1 [Example 93, 4-((3aS,4R,5R,6aS)-2-acetyl-4-methyloctahydrocyclopenta[c]pyrrol-5-ylamino)-6-(1-methyl-1H-pyrazol-4-yl)pyrrolo[1,2-b]pyridazine-3-carboxamide] | 9.40 | –
NC(=O)c1cnn2cc(-c3ccccc3)cc2c1N[C@@H]1CCCNC1 [Example 48, (R)-6-phenyl-4-(piperidin-3-ylamino)pyrrolo[1,2-b]pyridazine-3-carboxamide, HCl] | 7.24 | 7.27
C[C@@H]1[C@H]2CN(C(=O)CO)C[C@H]2C[C@H]1Nc1c(C(N)=O)cnn2cc(-c3ccc(C(=O)NC4CC4)cc3)cc12 [Example 70, 6-(4-(cyclopropylcarbamoyl)phenyl)-4-((3aS,4R,5R,6aS)-2-(2-hydroxyacetyl)-4-methyloctahydrocyclopenta[c]pyrrol-5-ylamino)pyrrolo[1,2-b]pyridazine-3-carboxamide] | 9.40 | 9.52
C[C@H]1CN(C(=O)CC#N)C[C@H]1Nc1c(C(N)=O)cnn2cc(-c3ccnc(F)c3)cc12 [Example 201, 4-(((3S,4S)-1-(2-cyanoacetyl)-4-methylpyrrolidin-3-yl)amino)-6-(2-fluoropyridin-4-yl)pyrrolo[1,2-b]pyridazine-3-carboxamide] | 8.85 | 9.30
N#Cc1ccccc1-c1cc2c(NC3CCOCC3)c(C(N)=O)cnn2c1 [Example 33, 6-(2-cyanophenyl)-4-(tetrahydro-2H-pyran-4-ylamino)pyrrolo[1,2-b]pyridazine-3-carboxamide] | 7.40 | 6.96
NC(=O)c1cnn2cc(-c3cccnc3)cc2c1NC1CCOCC1 [Example 31, 6-(3-pyridinyl)-4-(tetrahydro-2H-pyran-4-ylamino)pyrrolo[1,2-b]pyridazine-3-carboxamide] | 7.15 | 6.92
CC[C@H]1CN(c2ccc(C#N)cn2)C[C@H]1Nc1c(C(N)=O)cnn2cc(-c3ccc(=O)n(C)c3)cc12 [Example 173, 4-((3S,4S)-1-(5-cyanopyridin-2-yl)-4-ethylpyrrolidin-3-ylamino)-6-(1-methyl-6-oxo-1,6-dihydropyridin-3-yl)pyrrolo[1,2-b]pyridazine-3-carboxamide] | 9.40 | 9.10
C[C@@H]1[C@H]2CN(S(C)(=O)=O)C[C@H]2C[C@H]1Nc1c(C(N)=O)cnn2cc(-c3cnc(N)nc3)cc12 [Example 59, 6-(2-amino-5-pyrimidinyl)-4-(((3aS,4R,5R,6aS)-4-methyl-2-(methylsulfonyl)octahydrocyclopenta[c]pyrrol-5-yl)amino)pyrrolo[1,2-b]pyridazine-3-carboxamide] | 9.22 | 9.70
CC[C@H]1CN(c2ccc(C#N)cn2)C[C@H]1Nc1c(C(N)=O)cnn2cc(-c3cnn(C)c3)cc12 [Example 175, 4-((3S,4S)-1-(5-cyanopyridin-2-yl)-4-ethylpyrrolidin-3-ylamino)-6-(1-methyl-1H-pyrazol-4-yl)pyrrolo[1,2-b]pyridazine-3-carboxamide] | 8.82 | 8.72
Cn1nccc1-c1cc2c(NC3CCOCC3)c(C(N)=O)cnn2c1 [Example 30, 6-(1-methyl-1H-pyrazol-5-yl)-4-(tetrahydro-2H-pyran-4-ylamino)pyrrolo[1,2-b]pyridazine-3-carboxamide] | 6.96 | 6.72
CS(=O)(=O)N1C[C@H](CF)[C@H](Nc2c(C(N)=O)cnn3cc(-c4ccc(C(F)(F)F)nc4)cc23)C1 (racemic) [Example 275, (+/−)-Cis-4-((-4-(fluoromethyl)-1-(methylsulfonyl)pyrrolidin-3-yl)amino)-6-(6-(trifluoromethyl)pyridin-3-yl)pyrrolo[1,2-b]pyridazine-3-carboxamide] | – | 8.21
CS(=O)(=O)N1CCC[C@H](Nc2c(C(N)=O)cnn3cc(-c4ccccc4)cc23)C1 [Example 46, 4-(((3S)-1-(methylsulfonyl)-3-piperidinyl)amino)-6-phenylpyrrolo[1,2-b]pyridazine-3-carboxamide] | 7.68 | 7.24
NC(=O)c1cnn2cc(-c3cnc4ccccc4c3)cc2c1NC1CCOCC1 [Example 35, 6-(3-quinolinyl)-4-(tetrahydro-2H-pyran-4-ylamino)pyrrolo[1,2-b]pyridazine-3-carboxamide] | 7.40 | 7.40
CC[C@@H]1CN(C(=O)[C@@H](C)O)CC[C@H]1Nc1c(C(N)=O)cnn2cc(-c3cnn(C)c3)cc12 [Example 152, 4-((3R,4R)-3-ethyl-1-((R)-2-hydroxypropanoyl)piperidin-4-ylamino)-6-(1-methyl-1H-pyrazol-4-yl)pyrrolo[1,2-b]pyridazine-3-carboxamide] | 8.11 | 8.05
CC(=O)N1CCN(c2cc3c(N[C@@H]4C[C@@H]5CN(S(C)(=O)=O)C[C@@H]5[C@H]4C)c(C(N)=O)cnn3c2)C1=O [Example 60, 6-(3-acetyl-2-oxo-1-imidazolidinyl)-4-(((3aS,4R,5R,6aS)-4-methyl-2-(methylsulfonyl)octahydrocyclopenta[c]pyrrol-5-yl)amino)pyrrolo[1,2-b]pyridazine-3-carboxamide] | 8.74 | 9.10
COc1ccc(-c2cc3c(N[C@@H]4CCN(C(=O)[C@@H](C)O)CC4(C)C)c(C(N)=O)cnn3c2)cn1 [Example 56] | 8.48 | –
